Assay [1] in a line: Metal chelation assay (ferrozine). The settings on record: EDTA equivalents; mean ± SD. The protocol: Isolated compounds were dissolved in DMSO to prepare a concentration of 0.5 mg/mL, meanwhile, the positive control (EDTA) was used to prepare a stock solution of 100 µM in water; from which six concentrations were prepared including 5, 10, 20, 40, 50 and 80 µM to construct the dose-response curve. The assay was carried out as previously reported, with minor modifications. Briefly, in 96 wells plate (n = 6) 20 µL of the freshly prepared ferrous sulfate (0.3 mM) was mixed with 50 µL of the tested compound and incubated with 30 µL of ferrozine (0.8 mM) for 10 min at room temperature. Finally, reduction in color intensity was assessed at 540 nm using a microplate reader (Tecan, San Jose, CA, USA). Data are represented as means (n = 3) ± SD and the antioxidant effect of the extracts was calculated as µM EDTA equivalents by substitution in the linear regression equation (Supplementary Figure S4).

For assay [2], the target named is T1, porcine pancreatic lipase type II (Sus scrofa, UniProt P00591).
T1 construct: purchased sigma Aldrich L3126
T1 sequence (P00591 1-450): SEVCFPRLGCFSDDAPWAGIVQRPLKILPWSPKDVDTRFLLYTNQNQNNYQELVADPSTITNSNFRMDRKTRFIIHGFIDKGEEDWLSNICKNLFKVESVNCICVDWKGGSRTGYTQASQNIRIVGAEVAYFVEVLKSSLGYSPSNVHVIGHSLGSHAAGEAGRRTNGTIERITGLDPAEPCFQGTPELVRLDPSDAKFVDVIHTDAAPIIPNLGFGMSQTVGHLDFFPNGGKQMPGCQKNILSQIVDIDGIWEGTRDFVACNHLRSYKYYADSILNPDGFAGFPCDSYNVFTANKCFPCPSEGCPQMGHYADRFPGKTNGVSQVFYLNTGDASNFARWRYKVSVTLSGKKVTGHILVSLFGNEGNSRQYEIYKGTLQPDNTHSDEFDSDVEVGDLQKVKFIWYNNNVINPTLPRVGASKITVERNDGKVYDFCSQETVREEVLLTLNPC
Nature of the assay: Pancreatic lipase inhibition (p-NPD substrate). As to conditions: for IC50: porcine pancreatic lipase, p-NPD substrate, read-out: Pancreatic lipase IC50 (Mean ± SE). The class given is biochemical. As for the experimental part:
The inhibition of pancreatic lipase activity was assessed using p-nitrophenyl dodecanoate (p-NPD, Sigma-Aldrich, St. Louis, MO, USA cat#N0252) as substrate and porcine pancreatic lipase type II (PPL, sigma Aldrich, cat#L3126) which was described previously with slight modification. Solutions of the provided compounds were prepared in final concentrations of 50 µM in 5% DMSO. […] In a Tris-HCl buffer (100 mM, pH 8); 50 μL of PPL (1 mg/mL) was incubated with 25 μL of samples/blank for 10 min at 37 °C. Then, 10 μL of solution p-NPD (10 mM, in isopropanol) was added followed by dilution of the final volume to 200 μL with Tris-HCl buffer. The mixture was incubated for 20 min at 37 °C and absorbance was then measured at 405 nm on a TECAN microplate reader (Männedorf, Switzerland). After that, the percentage of lipase inhibition was assessed (Supplementary Table S1 and Figure S1).

Assay [3] relates to advanced glycation end products (AGEs) formation, BSA-fructose model. Nature of the assay: AGEs formation inhibition, BSA-fructose assay. Format: biochemical. The settings on record: AGEs fluorescence, 72 h, 37 °C; read-out: BSA-Fructose Model IC50 (Mean ± SE). As for the experimental part: The isolated compounds were prepared at final concentrations of 500 µM in DMSO in the BSA-fructose assay, and 1000 µM in all other AGEs assays. Compounds that exceeded 50% inhibition at this concentration were serially diluted to determine their IC50. All tests were conducted using quercetin (positive control).
According to the previous report, the inhibition test for AGE formation was assessed using the BSA-fructose model. Briefly, BSA (50 mg/mL) and fructose (1.25 M) (in 200 mM phosphate buffer, pH 7.4, with 0.02% sodium azide) were incubated with Sample/blank in the dark for 72 h at 37 °C, (1:1:1 by volume). On a microplate reader (Fluostar Omega BMG Labtech, Ortenberg, Germany), fluorescent AGEs were detected using excitation and emission wavelengths of 355 nm and 460 nm, respectively. Triplicates of all experiments were performed, and the percentage of AGEs inhibition was calculated.

The next assay can be described thus: ABTS assay. As to conditions: ascorbic acid equivalents; mean ± SD, n = 3. The protocol: DMSO was used for the preparation of 0.5 mg/mL concentrations of isolated compounds, meanwhile, the positive control (ascorbic acid) was used to prepare a stock solution of 1000 µM in water; from which seven concentrations were prepared including 7.812, 15.625, 31.25, 62.5, 125, 250 and 500 µM to construct the concentration-response curve (Supplementary Data Figure S2). The activity of the tested compounds to scavenge the free radicals of ABTS (2,2′-azino-bis (3-ethylbenzothiazoline-6-sulfonic acid)) was assessed according to the methodology reported previously with slight modifications.
Five milliliters of aqueous solution (7 mM) of ABTS was mixed with 88 µL potassium persulfate (140 mM) and the mixture was kept in the dark for 16 h to produce ABTS radical cation (ABTS^•+). Then methanol was added to the reaction mixture to dilute the formed ABTS^•+ solution to an absorbance of 0.700 (1:50) at 690 nm.
Ten microliters of the tested compound were incubated with 190 μL of ABTS^•+ solution in a 96-well plate for thirty minutes in the dark and the absorbance was measured later using a microplate reader (TECAN, Männedorf, Switzerland) at 690 nm. Data are represented as means (n = 3) ± SD and the antioxidant effect of the tested compounds was calculated as µM Ascorbic acid equivalents by substitution in the linear regression equation (Supplementary Figure S2).

A short description of assay [4]: Oxygen radical absorbance capacity (ORAC) assay. As to conditions: Trolox equivalents. The protocol:
Isolated compounds were dissolved in DMSO to prepare a concentration of 0.25 mg/mL, meanwhile, the positive control (Trolox) was used to prepare a stock solution of 1 mM in MeOH; from which nine concentrations were prepared including 400, 300, 200, 150, 100, 75, 50, 25, and 12.5 µM to construct the dose-response curve. The assay was carried out as previously reported, with minor modifications. Briefly, 12.5 µL of the prepared sample(s) were incubated with 75 µL fluoresceine (10 nM) for 30 min at 37 °C. Measuring fluorescence was performed (520 EM, 485 EX, nm) for 3 cycles (90 s cycle time) for background measurement (Supplementary Figure S5). Subsequently, to each well, freshly-made AAPH (2,2′-azobis(2-amidinopropane) dihydrochloride) (12.5 µL, 240 mM) was immediately added. Measuring fluorescence (520 EM, 485 EX, nm) was maintained (90 s × 85 cycles) for 2.5 h (Supplementary Figure S5). The antioxidant potential (µM trolox equivalents) was estimated by substituting in the linear-regression equation.

One may read the IC50 as the midpoint of a concentration-inhibition curve. For orientation: inhibition means the relative decrease from the control value, in per cent. Low values mean little suppression, high ones strong suppression.

Values joined by “and” are separate entries in the source; they are usually repeats but may differ in a detail not shown here. Equal entries are not always repeated.

Turning to `C[C@@H]1O[C@@H](OC[C@H]2O[C@@H](Oc3c(-c4ccc(O)c(O)c4)oc4cc(O)cc(O)c4c3=O)[C@H](O)[C@@H](O)[C@@H]2O)[C@H](O)[C@H](O)[C@H]1O` [Compound 4, rutin], the Metal chelation in assay [1] is 28.96±2.07 µM EDTA eq/mg and 28.96 µM EDTA eq/mg. Besides, the IC50 in assay [2] was > 50 µM; in assay [3] it was 37 µM. Moreover, the ABTS in “ABTS assay” came to 1.972±0.059 mM AAE/mg. In assay [4], the ORAC assay is 2.164±0.096 mM TE/mg and 2.16 mM TE/mg.
For `O=C(O)[C@H]1O[C@@H](Oc2c(-c3ccc(O)c(O)c3)oc3cc(O)cc(O)c3c2=O)[C@H](O)[C@@H](O)[C@H]1O` [Compound 3, quercetin-3-O-β-D-galacturonic acid], in assay [1], the Metal chelation is 28.26±0.78 µM EDTA eq/mg and 28.26 µM EDTA eq/mg. This molecule also gave an inhibition at 50 µM in assay [2] of 2.26%. The IC50 was > 50 µM in assay [2] and 500 µM in assay [3]. For the same molecule, the ABTS in “ABTS assay” is 0.210 ±0.012 mM AAE/mg. The ORAC assay in assay [4] was 0.538±0.015 mM TE/mg and 0.54 mM TE/mg.
With `O=c1cc(-c2ccc(O)cc2)oc2cc(O[C@@H]3O[C@H](CO)[C@@H](O)[C@H](O)[C@H]3O)cc(O)c12` [Compound 1, apeginin-7-O-β-D-glucoside], the Metal chelation in assay [1] was 19.26±1.52 µM EDTA eq/mg and 19.26 µM EDTA eq/mg. In assay [2], at 50 µM the inhibition was 4.48% and the half-maximal inhibitory concentration (IC50) is > 50 µM. Also, the IC50 in assay [3] is 303 µM. Moreover, the ABTS in the assay “ABTS assay” was found to be 0.702±0.050 mM AAE/mg. The ORAC assay in assay [4] is 1.092±0.067 mM TE/mg and 1.09 mM TE/mg.
As for `O=C(OC[C@H]1O[C@H](OC(=O)c2cc(O)c(O)c(O)c2)[C@H](O)[C@@H](OC(=O)c2cc(O)c(O)c(O)c2)[C@@H]1O)c1cc(O)c(O)c(O)c1` (stereo in doubt) [Compound 5, 1,3,6-trigalloyl glucose], the Metal chelation in assay [1] is 17.52±2.43 µM EDTA eq/mg and 17.52 µM EDTA eq/mg. The half-inhibitory concentration (IC50) in assay [2] was > 50 µM; in assay [3], 35 µM. The “Pancreatic lipase inhibitory effect (in words)” value in assay [2] (till 50 μM concentration) is given as “did not show any inhibitory effect”. Moreover, the ABTS in “ABTS assay” worked out at 9.640±0.061 mM AAE/mg. Besides, the ORAC assay in assay [4] is 1.119±0.116 mM TE/mg and 1.11 mM TE/mg.
Turning to `O=C(O)[C@H]1O[C@@H](Oc2c(-c3ccc(O)c(O)c3)oc3cc(O)cc(O)c3c2=O)[C@H](O)[C@@H](O)[C@@H]1O` [Compound 2, quercetin-3-O-β-D-glucuronic acid], the Metal chelation in assay [1] is 8.29±0.05 µM EDTA eq/mg and 8.29 µM EDTA eq/mg. Further, the inhibition at 50 µM in assay [2] was 1.92%. For the same molecule, the values for the IC50 in assay [2] and in assay [3] were > 50 µM and 262 µM, respectively. In “ABTS assay”, the ABTS is 0.646 ±0.072 mM AAE/mg. In assay [4], the ORAC assay is 0.739±0.098 mM TE/mg and 0.74 mM TE/mg.

(Values after publication PMC9139161, “Phenolics from Chrozophora oblongifolia Aerial Parts as Inhibitors of α-Glucosidases and Advanced Glycation End Products: In-Vitro Assessment, Molecular Docking and Dynamics Studies” (Biology, 2022).)
